Results published in US12295970B2, “Imidazoquinoline compounds and prodrugs thereof” (UNIVERSITY OF KANSAS, priority 2019, dated 2025).

Assays:
[1] = In vitro release kinetics (dialysis method); assay type: physicochemical
Method: Solutions (1 mL) of free R848 in DMSO, R848/HA-Toco in water, R848-Toco in DMSO, and R848-Toco/HA-Toco in water, with a concentration of 1 mg/mL on R848 basis were dialyzed using SnakeSkin® dialysis tubing (MWCO […]) against 30 mL of phosphate buffered saline release medium (PBS, 10 mM sodium phosphate, 137 mM NaCl, pH 7.4) with 0.5% (w/v) polysorbate 80 at 37° C. At predetermined time points, 1 mL aliquots of release medium were sampled and replaced with an equal volume of fresh medium. The samples were kept frozen (−20° C.) until HPLC analysis.
Results: The in vitro release profiles of R848 and R848-Toco from the HA-Toco were studied using a dialysis method. […] The release of parent R848 formulated with HA-Toco was tested in PBS media, with free R848 dissolved in DMSO as a control. Similar release kinetics were observed whether R848 was formulated with HA-Toco or without ([…]), and in both conditions nearly 100% of the agonist was released over 24 h (FIG. 4A).

Hydrolysis of R848-Toco = assay type: physicochemical
Method: For hydrolysis, R848-Toco (0.1 mg) was dissolved in 1 mL of DMSO, and the solution was added into 9 mL of hydrolysis media (PBS or 0.5% (w/v) polysorbate 80/PBS). The solution was then rapidly mixed and filtered using a syringe filter (0.22 μm×13 mm, nylon). The filtrate was then incubated at 37° C. under agitation (250 rpm). At predetermined time points, 50 μL of the solution was sampled and analyzed immediately by HPLC.

human TLR7 (hTLR7) = molecular target: T1, human TLR7 (hTLR7) (Homo sapiens, UniProt Q9NYK1); test: In vitro TLR7 activity assay (HEK-Blue hTLR7, QUANTI-Blue, Example 3); assay type: cell-based; settings: 16 h incubation; Null 1-k subtracted
T1 construct: host or cells: HEK-293 (HEK-Blue hTLR7)
T1 sequence (Q9NYK1 27-1049): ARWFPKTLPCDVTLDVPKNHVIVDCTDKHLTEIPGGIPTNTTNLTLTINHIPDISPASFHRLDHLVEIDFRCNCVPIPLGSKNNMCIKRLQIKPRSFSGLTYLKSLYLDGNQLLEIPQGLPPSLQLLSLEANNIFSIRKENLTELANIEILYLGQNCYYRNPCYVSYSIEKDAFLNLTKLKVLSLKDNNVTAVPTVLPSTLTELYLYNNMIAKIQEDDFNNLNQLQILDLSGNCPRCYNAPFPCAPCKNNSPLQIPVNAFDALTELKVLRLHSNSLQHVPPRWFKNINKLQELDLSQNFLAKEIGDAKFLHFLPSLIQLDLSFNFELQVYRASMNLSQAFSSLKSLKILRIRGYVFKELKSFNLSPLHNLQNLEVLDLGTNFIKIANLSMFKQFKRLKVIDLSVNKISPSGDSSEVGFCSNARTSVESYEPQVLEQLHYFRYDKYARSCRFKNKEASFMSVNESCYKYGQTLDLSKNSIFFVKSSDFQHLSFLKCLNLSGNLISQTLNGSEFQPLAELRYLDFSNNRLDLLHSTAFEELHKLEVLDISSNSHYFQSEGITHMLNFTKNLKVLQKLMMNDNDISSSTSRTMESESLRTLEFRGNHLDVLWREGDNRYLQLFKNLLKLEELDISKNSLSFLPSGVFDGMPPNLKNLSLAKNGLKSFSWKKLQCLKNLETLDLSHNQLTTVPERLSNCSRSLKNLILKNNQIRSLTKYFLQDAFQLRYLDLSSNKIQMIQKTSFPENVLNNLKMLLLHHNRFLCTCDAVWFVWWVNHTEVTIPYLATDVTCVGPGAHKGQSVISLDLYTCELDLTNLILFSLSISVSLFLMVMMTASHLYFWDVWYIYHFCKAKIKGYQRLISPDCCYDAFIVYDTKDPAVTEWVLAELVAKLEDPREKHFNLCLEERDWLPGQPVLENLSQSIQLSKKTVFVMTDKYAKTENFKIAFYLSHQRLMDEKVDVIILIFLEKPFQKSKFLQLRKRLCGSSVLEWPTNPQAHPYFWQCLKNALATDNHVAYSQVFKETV
Method: TLR agonist activity was measured in a dose-response study using reporter cell lines expressing the human TLR7 (hTLR7). […] The hTLR7 activity of R848-Toco, the formulation and its components were assessed using HEK-293 cells co-transfected with the hTLR7 gene and an inducible SEAP reporter gene along with the corresponding null control line (HEK-Blue™ hTLR7 and Null-1k cells, Invivogen). Cells were maintained in DMEM media with selective antibiotics according to the manufacturer protocol.^26 HEK-Blue™ cells were seeded into 96 well plates at a density of 220,000 cells/mL with 180 μL/well of culture medium. Stock solutions in DMSO were first serially diluted to seven concentrations (DMSO solutions further diluted into H2O). Each well was stimulated with 20 μL of agonists or agonist-free controls (equivalent concentration of HA-Toco, D-α-Tocopherol succinate, PBS or […] DMSO) at the determined final concentrations in 5 replicates. After 16 h of incubation at 37° C. in a 5% CO2 atmosphere, 20 μL of the supernatant from each well was sampled and spiked into 180 μL of QUANTI-Blue™ solution followed by incubation for 1 h at 37° C. Relative hTLR7 activity was then analyzed by UV-Vis at 637 nm using a microplate UV reader (SpectraMAX GeminiXS, Molecular Devices, San Jose, CA, USA). For each compound and concentration, a corresponding sample was applied to the HEK-Blue™ Null-1k cell line. The TLR7 agonist activity was determined after averaging across hTLR7 replications and subtracting the averaged Null response.
Activation levels were calculated as the difference between the average readings of the hTLR7 cell line and the Null 1-k cell line, to account for non-hTLR7 related induction of NF-κB. […] Therefore, this study confirmed that R848-Toco, formulated with HA-Toco as an emulsion, maintained its TLR agonist activity. […]

canine PBMCs = test: In vitro cytokine secretion assay in canine PBMCs (Example 3); assay type: cell-based; settings: 15 hours, ELISA
Description: As a TLR7/8 agonist, R848 binds to endosomal TLR7 and 8 receptors located on antigen presenting cells (APCs). The activation of APCs produces pro-inflammatory cytokines including TNF-α, type I IFN and IL-12. These cytokines, together with stimulated APCs that take up tumor antigens, enhance the activation of anti-tumor Th-1 immune responses that involve both CD4^+ T helper cells and CD8^+ cytotoxic T cells.^16 To evaluate the Th-1 associated cytokine production in vitro, isolated canine PBMCs were treated with R848, formulated or unformulated R848-Toco, and the secretion of TNF-α and IL-12 were measured by ELISA as markers of generalized inflammatory response. Canines were chosen as a model over mice because of the greater genetic similarity to humans and more similar immune systems.^46 Peripheral blood from healthy canine donors of 7-10 years age (similar to the age of typical canines with cancer^14) was obtained with appropriate informed consent of the owner. Blood (8 mL per tube) was drawn via sterile venipuncture into a BD Vacutainer cell preparation tube containing sodium heparin (BD Biosciences). PBMCs were isolated within one hour following procurement by density gradient centrifugation according to the manufacturer protocol and resuspended to 3×10^6 cells/mL in sterile RPMI 1640 medium with L-glutamine (Gibco) supplemented with 100 IU/mL penicillin, 100 μg/mL streptomycin (Corning) and 10% (v/v) heat-inactivated Fetalgro (RMBIO). Corning 3917, 96-well tissue culture treated plates were seeded with the PBMC suspension (180 μL/well), 20 μL of the serially diluted R848 samples were added in triplicate and HA-Toco vehicle in duplicate to yield the desired concentrations in a 1% (v/v) DMSO cell suspension. […] Sample cytokine concentrations were determined by interpolation of a four-parameter logistic curve of the recombinant standards using GraphPad Prism 6. […] Cytokine secretion levels were measured by ELISA (Duoset, R&D Systems, Minneapolis, MN, USA) according to the manufacturer protocol.

[2] = Solubility in water (in words); assay type: physicochemical
mast cell tumors = settings: 86 canine patients (7 complete response and 25 partial response); cited from earlier work

| SMILES | released over the first 24 h ([1]; 0.5% w/v polysorbate 80 solution of PBS) [%] | release profile (in words) ([1]; PBS, pH 7.4) | hydrolyzed products observed by HPLC (Hydrolysis of R848-Toco; hydrolysis sample at 8 h) | R848-Toco hydrolyzed to R848 (Hydrolysis of R848-Toco; initial 8 h, 37° C.) [%] | hTLR7 activation (NF-κB, in words) (human TLR7 (hTLR7)) | IL-12 levels (canine PBMCs) | solubility in water [2] | response rate (mast cell tumors) [%] |
| --- | --- | --- | --- | --- | --- | --- | --- | --- |
| CCOCc1nc2c(N)nc3ccccc3c2n1CC(C)(C)OC(=O)CCC(=O)Oc1c(C)c(C)c2c(c1C)CC[C@@](C)(CCC[C@H](C)CCC[C@H](C)CCCC(C)C)O2 [Compound R848-Toco] | 76 | burst release within the first half hour | R848, which was the only observed hydrolyzed product | 72 | much less active | lower expression | poorly soluble in water | – |
| Cc1[nH]c(/C=C2\C(=O)Nc3ccc(F)cc32)c(C)c1C(=O)NCCN1CCCC1.O=P(O)(O)O [toceranib phosphate] | – | – | – | – | – | – | – | 37.2 |
